Data reported in patent US20260137697A1, “THIAZOLO[5,4-D]PYRIMIDINE COMPOUNDS, COMPOSITIONS COMPRISING THEM AND USES THEREOF” (University de Montreal, priority 2022, published 2026).

How the values were obtained:
pERK, HCT116 cells = test: Phospho-ERK inhibition, AlphaLISA p-ERK 1/2, HCT-116; assay type: cell-based, human; details: Table 3; for IC50: HCT116 cells (KRAS G13D), 1 h treatment; for HCT116 pERK (Ymin %): lowest % inhibition value of the pERK IC50 curve, above −20% = no paradoxical induction
Outline: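 Cells in RPMI-1640 with 5% FBS plated overnight, then treated 1 h with ten-point dilutions (10 μM to 0.33 nM, 0.5% DMSO). Lysate p-ERK1/2 (Thr202/Tyr204) read by AlphaLISA SureFire Ultra; % inhibition normalised to DMSO and 1 μM trametinib background, IC50 by four-parameter fit.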

BRAF = molecular target: T1, BRAF (Homo sapiens, UniProt P15056); test: BRAF kinase activity assay (ADP-Glo); assay type: biochemical; details: Table 3; 10 μM ATP, kinase-dead MEK1 substrate
T1 construct: GST; purchased Millipore Sigma B4062-10UG
T1 sequence (P15056 whole entry): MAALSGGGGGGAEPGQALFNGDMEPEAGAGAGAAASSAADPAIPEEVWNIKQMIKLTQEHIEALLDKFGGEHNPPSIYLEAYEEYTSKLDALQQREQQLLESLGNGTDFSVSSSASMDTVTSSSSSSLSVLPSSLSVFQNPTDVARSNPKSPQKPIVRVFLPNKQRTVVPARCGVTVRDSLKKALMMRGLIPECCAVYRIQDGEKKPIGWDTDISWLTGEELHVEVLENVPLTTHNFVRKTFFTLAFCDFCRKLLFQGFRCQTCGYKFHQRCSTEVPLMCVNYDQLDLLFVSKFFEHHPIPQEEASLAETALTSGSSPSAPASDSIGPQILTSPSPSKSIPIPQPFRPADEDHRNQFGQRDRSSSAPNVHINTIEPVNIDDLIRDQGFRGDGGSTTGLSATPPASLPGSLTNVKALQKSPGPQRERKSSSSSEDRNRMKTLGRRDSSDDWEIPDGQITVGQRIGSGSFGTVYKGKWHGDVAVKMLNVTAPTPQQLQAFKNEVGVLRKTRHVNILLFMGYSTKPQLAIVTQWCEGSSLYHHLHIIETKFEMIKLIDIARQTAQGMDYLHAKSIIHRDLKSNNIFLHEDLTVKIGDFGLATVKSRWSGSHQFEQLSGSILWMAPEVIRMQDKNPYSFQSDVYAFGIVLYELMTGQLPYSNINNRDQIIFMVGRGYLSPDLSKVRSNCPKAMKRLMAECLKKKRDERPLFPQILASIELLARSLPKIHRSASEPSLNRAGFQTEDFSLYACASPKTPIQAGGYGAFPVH
Outline: (§1)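 GST-tagged kinase (0.375 nM) with 75 nM kinase-dead MEK1 and 10 μM ATP in HEPES pH 7.5 buffer, 2 h at 30° C, nine concentrations 100–0.01 nM, 0.05% DMSO. ADP-Glo luminescence; % inhibition vs DMSO and substrate-only blanks, IC50 by four-parameter fit.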

CRAF = molecular target: T2, CRAF (Homo sapiens, UniProt P04049); test: CRAF kinase activity assay (ADP-Glo); assay type: biochemical; details: Table 3; 10 μM ATP, kinase-dead MEK1 substrate
T2 construct: fused on or other part: GST tag (N-terminal according to the vendor's product)
T2 sequence (P04049 whole entry Y340E/Y341E, form open, the tested form may be a part): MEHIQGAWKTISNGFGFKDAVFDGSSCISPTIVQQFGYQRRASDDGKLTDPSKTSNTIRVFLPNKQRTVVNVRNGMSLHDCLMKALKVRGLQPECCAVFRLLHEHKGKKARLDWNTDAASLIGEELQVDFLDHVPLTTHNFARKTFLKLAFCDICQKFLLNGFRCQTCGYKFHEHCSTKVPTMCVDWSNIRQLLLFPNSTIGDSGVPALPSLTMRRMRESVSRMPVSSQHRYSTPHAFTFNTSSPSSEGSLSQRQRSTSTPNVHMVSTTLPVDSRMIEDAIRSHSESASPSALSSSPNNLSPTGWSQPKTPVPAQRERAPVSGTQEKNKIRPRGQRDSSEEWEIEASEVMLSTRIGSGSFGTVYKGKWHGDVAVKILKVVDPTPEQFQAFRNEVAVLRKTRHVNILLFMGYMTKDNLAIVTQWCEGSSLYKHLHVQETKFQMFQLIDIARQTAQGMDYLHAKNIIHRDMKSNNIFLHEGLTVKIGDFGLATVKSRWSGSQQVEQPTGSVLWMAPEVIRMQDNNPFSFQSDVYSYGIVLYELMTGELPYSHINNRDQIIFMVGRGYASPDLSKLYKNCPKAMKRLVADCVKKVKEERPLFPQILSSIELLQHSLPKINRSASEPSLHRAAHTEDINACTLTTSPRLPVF
Outline: as §1

Compound | IC50 (pERK, HCT116 cells; Homo sapiens, HCT-116) [nM] | IC50 (BRAF) [nM] | IC50 (CRAF) [nM] | IC50 (pERK, HCT116 cells) [nM] | HCT116 pERK (Ymin %) (pERK, HCT116 cells) [%]
Cc1c(F)cccc1S(=O)(=O)Nc1ccc(F)c(Nc2ncnc3sc(-n4nc(C(=O)N(C)Cc5cccnc5)c5ccccc54)nc23)c1F [Example 23] | 1000 to 10000 | > 10 | > 50 |  | 
Cc1c(F)cccc1S(=O)(=O)Nc1ccc(F)c(Nc2ncnc3sc(-n4cc(C(=O)N(C)CCc5ccccn5)c5ccccc54)nc23)c1F [Example 28] | < 500 | 1 to 10 | 10 to 50 |  | 
NC(=O)c1cccc2c1ncn2-c1nc2c(Nc3c(F)ccc(NS(=O)(=O)c4cccc(Cl)c4Cl)c3F)ncnc2s1 [Example 123] |  | 1 to 10 | < 10 | < 500 | −11
COCCOCCOc1cccc2c1ncn2-c1nc2c(Nc3c(F)ccc(NS(=O)(=O)c4cccc(Cl)c4Cl)c3F)ncnc2s1 [Example 131] |  | 1 to 10 | < 10 | < 500 | 0
Cc1c(F)cccc1S(=O)(=O)Nc1ccc(F)c(Nc2ncnc3sc(-n4cnc5c(F)cccc54)nc23)c1F [Example 35] |  | 1 to 10 | < 10 | < 500 | −8
CCN(CCOC)S(=O)(=O)c1cn(-c2nc3c(Nc4c(F)ccc(NS(=O)(=O)c5cccc(Cl)c5Cl)c4F)ncnc3s2)c2ccccc12 [Example 70] | 500 to 1000 | > 10 | 10 to 50 |  | 
O=S(=O)(Nc1ccc(F)c(Nc2ncnc3sc(-n4cnc5c(N6CCC7(CCOC7)CC6)cccc54)nc23)c1F)c1cccc(Cl)c1Cl [Example 146] |  | > 10 | > 50 | < 500 | −12
O=S(=O)(Nc1ccc(F)c(Nc2ncnc3sc(-n4cnc5c(F)c(OCCO)ccc54)nc23)c1F)c1cccc(Cl)c1Cl [Example 80] | 1000 to 10000 | 1 to 10 | < 10 |  | 
COc1ccc(S(=O)(=O)Nc2ccc(F)c(Nc3ncnc4sc(-n5cnc6ccccc65)nc34)c2F)c(C)c1F [Example 16] |  | 1 to 10 | 10 to 50 | 500 to 1000 | −8
CCC(=O)c1cn(-c2nc3c(Nc4c(F)ccc(NS(=O)(=O)c5cccc(Cl)c5Cl)c4F)ncnc3s2)c2ccccc12 [Example 91] | 1000 to 10000 | > 10 | > 50 |  | 
Cc1c(Cl)cccc1S(=O)(=O)Nc1ccc(F)c(Nc2ncnc3sc(-n4cnc5c(-c6cccnc6)cccc54)nc23)c1F [Example 10] |  | 1 to 10 | 10 to 50 | 1000 to 10000 | −2
COCCN(C)S(=O)(=O)c1cn(-c2nc3c(Nc4c(F)ccc(NS(=O)(=O)c5cccc(Cl)c5Cl)c4F)ncnc3s2)c2ccccc12 [Example 48] |  | 1 to 10 | 10 to 50 | 500 to 1000 | 0
Cc1c(F)cccc1S(=O)(=O)Nc1ccc(F)c(Nc2ncnc3sc(-n4nc(C(=O)N(C)CCN(C)C)c5ccccc54)nc23)c1F [Example 39] |  | < 1 | < 10 | < 500 | −12
CCOc1cccc2c1ccn2-c1nc2c(Nc3c(F)ccc(NS(=O)(=O)c4cccc(Cl)c4Cl)c3F)ncnc2s1 [Example 108] |  | 1 to 10 | 10 to 50 | < 500 | −10
Cc1c(Cl)cccc1S(=O)(=O)Nc1ccc(F)c(Nc2ncnc3sc(-n4cnc5c(F)cccc54)nc23)c1F [Example 36] |  | 1 to 10 | 10 to 50 | 1000 to 10000 | −13
COCCOc1cccc2c1ncn2-c1nc2c(Nc3c(F)ccc(NS(=O)(=O)c4cccc(Cl)c4Cl)c3F)ncnc2s1 [Example 119] |  | < 1 | < 10 | < 500 | −1
N#CCC1CN(C(=O)c2cn(-c3nc4c(Nc5c(F)ccc(NS(=O)(=O)c6cccc(Cl)c6Cl)c5F)ncnc4s3)c3ccccc23)C1 [Example 60] |  | < 1 | < 10 | < 500 | −2
CS(=O)(=O)C1CCN(c2cccc3c2ncn3-c2nc3c(Nc4c(F)ccc(NS(=O)(=O)c5cccc(Cl)c5Cl)c4F)ncnc3s2)CC1 [Example 153] |  | 1 to 10 | < 10 | < 500 | −5
O=C(c1cccs1)c1cn(-c2nc3c(Nc4c(F)ccc(NS(=O)(=O)c5cccc(Cl)c5Cl)c4F)ncnc3s2)c2ccccc12 [Example 107] | 1000 to 10000 | > 10 | > 50 |  | 
O=S(=O)(Nc1ccc(F)c(Nc2ncnc3sc(-n4cnc5c(OCCO)cccc54)nc23)c1F)c1cccc(Cl)c1Cl [Example 111] |  | < 1 | < 10 | < 500 | −10

Now from value to molecule, other results behind:

IC50 (pERK, HCT116 cells; Homo sapiens, HCT-116) [nM] | IC50 (BRAF) [nM] | IC50 (CRAF) [nM] | IC50 (pERK, HCT116 cells) [nM] | Compound | HCT116 pERK (Ymin %) (pERK, HCT116 cells) [%]
 | 1 to 10 | < 10 | < 500 | O=S(=O)(Nc1ccc(F)c(Nc2ncnc3sc(-n4cnc5ccccc54)nc23)c1F)c1ccccc1Cl [Example 37] | −11
 | > 10 | 10 to 50 | 1000 to 10000 | Cc1c(F)cccc1S(=O)(=O)Nc1ccc(F)c(Nc2ncnc3sc(-n4nc(C(=O)N5C6CCC5COC6)c5ccccc54)nc23)c1F [Example 34] | −13
 | 1 to 10 | < 10 | < 500 | COCCNS(=O)(=O)c1cn(-c2nc3c(Nc4c(F)ccc(NS(=O)(=O)c5cccc(Cl)c5Cl)c4F)ncnc3s2)c2ccccc12 [Example 62] | 2
 | 1 to 10 | 10 to 50 | < 500 | O=S(=O)(Nc1ccc(F)c(Nc2ncnc3sc(-n4cnc5c(N6CC7CC6CO7)cccc54)nc23)c1F)c1cccc(Cl)c1Cl (stereo not drawn) [Example 127] | 1
 | 1 to 10 | > 50 | < 500 | CC1(C#N)CCN(c2cccc3c2ncn3-c2nc3c(Nc4c(F)ccc(NS(=O)(=O)c5cccc(Cl)c5Cl)c4F)ncnc3s2)CC1 [Example 145] | −13
 | 1 to 10 | < 10 | < 500 | Cc1ncn(-c2nc3c(Nc4c(F)ccc(NS(=O)(=O)c5cccc(F)c5C)c4F)ncnc3s2)c1C [Example 1] | −11
 | 1 to 10 | < 10 | < 500 | O=C(c1cn(-c2nc3c(Nc4c(F)ccc(NS(=O)(=O)c5cccc(Cl)c5Cl)c4F)ncnc3s2)c2ccccc12)N1CC2CC1CO2 (stereo not drawn) [Example 84] | 18
 | < 1 | 10 to 50 | < 500 | O=S(=O)(Nc1ccc(F)c(Nc2ncnc3sc(-n4cnc5c(N6CCC[C@H](O)C6)cccc54)nc23)c1F)c1cccc(Cl)c1Cl [Example 147] | −4
 | < 1 | < 10 | < 500 | CN(Cc1ccncc1)C(=O)c1cn(-c2nc3c(Nc4c(F)ccc(NS(=O)(=O)c5cccc(Cl)c5Cl)c4F)ncnc3s2)c2ccccc12 [Example 45] | −4
 | > 10 | 10 to 50 | 500 to 1000 | O=C(c1cn(-c2nc3c(Nc4c(F)ccc(NS(=O)(=O)c5cccc(Cl)c5Cl)c4F)ncnc3s2)c2ccccc12)N1CC(O)(C(F)(F)F)C1 [Example 96] | −1
